Data from patent publication US20060293323A1, “Therapeutic Combinations of erb B Kinase Inhibitors and Antineoplastic Therapies” (priority 2002, published 2006).
Counter-ions that a name gives are not always drawn.

Experiments:
NSCLC, renal cell cancer = experiment: Clinical administration of CI-1033 alone; assay type: in vivo, human; settings: repeated courses and prolonged exposures, patients
Source text: The treatment may be prolonged, with or without an off drug rest period.

[1] = system: L3.6pl human pancreatic carcinoma; experiment: Orthotopically implanted L3.6pl human pancreatic carcinoma in nude mice, CI-1033 and gemcitabine; assay type: in vivo; settings: for loss of initial body weight during therapy: once daily, 5 days per week, 4 weeks
[2] = system: murine colon carcinoma, C26; experiment: Subcutaneous murine colon carcinoma C26, CI-1033 and capecitabine; assay type: in vivo; settings: for optimum tumor growth delay as single agent: CI-1033 40, 20, 10 mg/kg PO, capecitabine 750, 500 mg/kg PO days 14-16, 21-23, 28-30; for tumor free survivors: single agents or combinations
Protocol: (§1) On Day 0 of the test, each mouse was surgically implanted (subcutaneously) with a fragment of tumor weighing approximately 30 mg. The mice were weighed weekly, and tumor size (width and length in mm) were measured three times each week with standard calipers. Tumor mass for each animal was calculated according to the formula: [formula] where “a” is width of the tumor in mm, and “b” is the length in mm. Evaluation of anticancer activity was evaluated based on the formula T-C, where “T” and “C” are the median time (in days) required for the treated and control (respectively) tumors to reach a pre-determined size of 750 mg (the “evaluation size”). […] Standard agents were diluted as described in the package inserts and administered at various dosage levels in 0.5 mL injections.
(§2) In each experiment, mice bearing established tumors were randomized into one of four treatment groups. One group served as control treatment groups. […] The third group was further divided into four subgroups, each of which received the designated standard agent by the route and schedules indicated below.
(§3) Group 4 was further subdivided into groups receiving combination therapy.
Capecitabine was administered PO at doses of 750 and 500 mg/kg on days 14-16, 21-23, and 28-30.

[3] = system: H125 human non-small cell lung cancer xenograft; assay type: in vivo; settings: CI-1033 PO days 19-23 and 26-30; docetaxel IV days 19, 23, 27
Protocol: as §1, §2, §3

[4] = system: SCC-7 Murine Squamous Cell Carcinoma; experiment: SCC-7 murine squamous cell carcinoma, CI-1033 with single-dose radiation
Protocol: Two studies were conducted. […] Radiation was delivered as either a single dose or as multiple fractions over a 5-day period.

Rif-1 sarcoma = experiment: Rif-1 sarcoma, CI-1033 with multiple doses of radiation; assay type: in vivo, murine
Source text: Radiation at 5 Gy for 5 days produced a tumor growth delay of 28.5 days. […] Data representative of this effect is provided on Table I and FIG. 2.

[5] = system: A431 human epidermoid, LX-1 lung, A549 lung and GEO colon carcinomas; settings: several human tumor xenografts; cited from earlier work
[6] = system: OVCAR-5 Human Ovarian Cancer xenografts; experiment: Advanced OVCAR-5 xenografts, CI-1033 and cisplatin; assay type: in vivo
Protocol: One group served as control treatment groups.
Cisplatin at doses of 12, 6, 3, and 1.5 mg/kg was administered IV on days 28, 32, and 34.

in vivo = settings: female, nude, mouse, in vivo, ip
Protocol: as §1, §2, §3
(§4) Etoposide was administered IP at doses of 80, 50, and 31 mg/kg on days 12, 16 and 20.

[7] = system: H125 human non-small cell lung cancer xenograft; experiment: in vivo
Protocol: as §1, §2, §3, §4

[8] = system: MDA-MB-453 human breast carcinoma cells; experiment: Paclitaxel-induced apoptosis in vitro, paclitaxel and CI-1033 alone or in combination; assay type: cell-based; settings: 3-day exposure to paclitaxel alone
Source text: However, none of the inhibitors of the erbB family tyrosine kinases described above are irreversible and are pan erbB tyrosine kinase inhibitors. […] [Inoue, Clin. Cancer Res. 6:4874-84, 2000.]

[9] = system: H125 human cell lung carcinoma xenografts; assay type: in vivo; settings: CI-1033 orally days 32-35; topotecan IP days 26-30
Protocol: as §1, §2, §3

[10] = CI-1033 5 mg/kg PO D 7-18 plus X-ray 10 Gy TO D 7
[11] = CI-1033 10 mg/kg PO D 7-18, no X-ray
[12] = CI-1033 10 mg/kg PO D 7-18 plus X-ray 10 Gy TO D 7
[13] = CI-1033 20 mg/kg PO D 7-18, no X-ray
[14] = CI-1033 20 mg/kg PO D 7-18 plus X-ray 10 Gy TO D 7
[15] = CI-1033 40 mg/kg PO D 7-18, no X-ray
[16] = CI-1033 40 mg/kg PO D 7-18 plus X-ray 10 Gy TO D 7
[17] = capecitabine single agent or capecitabine 750 or 500 mg/kg with CI-1033

For `C=CC(=O)Nc1cc2c(Nc3ccc(F)c(Cl)c3)ncnc2cc1OCCCN1CCOCC1` [CI-1033, N-[4-(3-chloro-4-fluoro-phenylamino)-7-(3-morpholin-4-yl-propoxy)-quinazolin-6-yl]-acrylamide], the cumulative toxicity (NSCLC, renal cell cancer) was “no evidence of cumulative toxicity”, the “loss of initial body weight during therapy” value ([1]; CI-1033 10 mg/kg orally) was 6% and the “loss of initial body weight during therapy” value ([1]; CI-1033 30 mg/kg orally) was 9%. For the same molecule, the “body weight between the end of therapy and terminal sacrifice” value ([1]; CI-1033 10 and 30 mg/kg) was “gained weight”, the “optimum tumor growth delay as single agent” value (“optimum tumor growth delay” for short) [2] was 3.6 days and the tumor free survivors [2] was 0%. The “optimum tumor growth delay” value [3] was 11.7 days, the “% Weight Change (maximum treatment-related weight loss)” value [4, 10] was −15% and the “CR (complete response)” value [4, 10] was 2/6. For the same molecule, the “T − C” value [4, 10] was 11.1 days, the “Toxic Deaths” value [4, 10] was 0/6 and the “% Weight Change (maximum treatment-related weight loss)” value [4, 11] was −1%. The “Toxic Deaths” value [4, 11] was 0/6, the “T − C” value ([4]; CI-1033 10 mg/kg PO D 7-18, no X-ray, evaluation size 750 mg) was 1.3 days and the “% Weight Change (maximum treatment-related weight loss)” value [4, 12] was −13%. The “PR (partial response)” value [4, 12] was 1/6, the “T − C” value [4, 12] was 9.7 days and the “Toxic Deaths” value [4, 12] was 0/6. For the same molecule, the “% Weight Change (maximum treatment-related weight loss)” value [4, 13] was −1%, the “Toxic Deaths” value [4, 13] was 0/6 and the “T − C” value ([4]; CI-1033 20 mg/kg PO D 7-18, no X-ray, evaluation size 750 mg) was 0.2 days. For the same molecule, the “% Weight Change (maximum treatment-related weight loss)” value [4, 14] was −15%, the “CR (complete response)” value [4, 14] was 2/6 and the “PR (partial response)” value [4, 14] was 1/6. The “T − C” value [4, 14] was 20.4 days, the “Toxic Deaths” value [4, 14] was 0/6 and the “% Weight Change (maximum treatment-related weight loss)” value [4, 15] was −2%. The “Toxic Deaths” value [4, 15] was 0/6, the “T − C” value ([4]; CI-1033 40 mg/kg PO D 7-18, no X-ray, evaluation size 750 mg) was 0.9 days and the “% Weight Change (maximum treatment-related weight loss)” value [4, 16] was −14%. For the same molecule, the “CR (complete response)” value [4, 16] was 5/6, the “T − C” value [4, 16] was 26.0 days and the “Toxic Deaths” value [4, 16] was 0/6. For the same molecule, the “enhancement of antitumor effect by combination with radiation” value ([4]; single-dose radiation 1 hour after first of 12 PO doses of CI-1033) was 91%, the “enhancement compared to radiation alone” value (Rif-1 sarcoma; 5 Gy radiation for 5 days, each 1 hour after daily CI-1033) was 42% and the tumor growth delay (Rif-1 sarcoma; CI-1033 alone, 5-day treatment schedule) was 3.7 days.

In the case of `COc1cc2ncnc(Nc3ccc(F)c(Cl)c3)c2cc1OCCCN1CCOCC1` [Iressa], the “therapeutic effect of combination with paclitaxel versus either agent alone” value [5] is given as “greater therapeutic effect”.

With `CCCCCOC(=O)Nc1nc(=O)n([C@@H]2O[C@H](C)[C@@H](O)[C@H]2O)cc1F` [capecitabine, 5′-deoxy-5-fluoro-N-[(pentyloxy)carbonyl]-cytidine] the “optimum tumor growth delay” value [2] was 22.5 days, the complete responses [2, 17] was 3/6 and the partial responses [2, 17] was 2/6. For the same molecule, the tumor free survivors [2] was 8%.

For `N.N.[Cl][Pt][Cl]` [cisplatin, cis-diaminodichloroplatinum (II)], the “anticancer effects when administered alone” value ([6]; CI-1033 PO days 28-37, cisplatin IV days 28, 32, 34) was “Neither cisplatin nor CI-1033 when administered alone produced meaningful anticancer effects” and the “tumor growth delay (T-C)” value ([6]; cisplatin alone 12 mg/kg) was 10 days.

In the case of `CC(=O)O[C@@]12CO[C@@H]1C[C@H](O)[C@@]1(C)C(=O)[C@H](O)C3=C(C)[C@@H](OC(=O)[C@H](O)[C@@H](NC(=O)OC(C)(C)C)c4ccccc4)C[C@@](O)([C@@H](OC(=O)c4ccccc4)[C@H]21)C3(C)C` [docetaxel, reference compound], the “optimum tumor growth delay” value [3] is reported as 35.7 days.

In the case of `COc1cc([C@@H]2c3cc4c(cc3[C@@H](O[C@@H]3O[C@@H]5CO[C@@H](C)O[C@H]5[C@H](O)[C@H]3O)[C@H]3COC(=O)[C@H]23)OCO4)cc(OC)c1O` [etoposide, 4′-demethylepipodophyllotoxin 9-[4,6-0-(R)-ethylidene-(beta)-D-glucopyranoside]], the MTD (in vivo) is reported as 50 mg/kg, the “delaying the growth of H125 as a single agent” value ([7]; etoposide IP days 12, 16, 20 at 50 mg/kg, CI-1033 200, 124, 77 mg/kg) is reported as “relatively ineffective” and the tolerability ([7]; etoposide doses 80, 50, 31 mg/kg IP) is reported as “well tolerated only at the lowest dose tested”.

With `Nc1ccn([C@@H]2O[C@H](CO)[C@@H](O)C2(F)F)c(=O)n1` [gemcitabine, 2′-deoxy-2′,2′-difluoro-cytidine, reference compound] the “loss of initial body weight at terminal sacrifice” value ([1]; gemcitabine alone 125 mg/kg twice weekly) was 4% and the “body weight change over the therapy period” value ([1]; gemcitabine alone 125 mg/kg twice weekly, tumor bearing nude mice) was “slight weight gain”.

Work on `CC(=O)O[C@H]1C(=O)[C@@]2(C)[C@H]([C@H](OC(=O)c3ccccc3)[C@]3(O)C[C@H](OC(=O)[C@H](O)[C@@H](NC(=O)c4ccccc4)c4ccccc4)C(C)=C1C3(C)C)[C@]1(OC(C)=O)CO[C@@H]1C[C@@H]2O` [paclitaxel] yielded a cells undergoing apoptosis [8] of 23%.

In the case of `CC[C@@]1(O)C(=O)OCc2c1cc1n(c2=O)Cc2cc3c(CN(C)C)c(O)ccc3nc2-1` [topotecan, (S)-10-[(dimethylamino)methyl]-4-ethyl-4,9-dihydroxy-1H-pyrano[3′,4′:6,7]indolizino[1,2-b]quinoline-3,14-(4H,12H )-dione monohydrochloride], the “anticancer effectiveness measured by tumor growth delay, single agents” value [9] is reported as “meaningful anticancer effectiveness”.
